According to patent publication US6423701B1, “Water soluble amine esters of testosterone for intranasal administration” (University of Kentucky, priority 1996, dated 2002):

Experiment: Nasal absorption of TSDG in rats: plasma levels after intranasal and intravenous administration, HPLC
Assay type: in vivo
Conditions: male, Sprague-Dawley, rat
Method: Male Sprague-Dawley rats weighing 250-275 gm were used. Animals were fasted overnight before the experiment, but water was given ad libitum. All surgical procedures were performed under sodium pentobarbital anesthesia (40 mg/kg i.p.). An incision was made in the neck, and the trachea was cannulated with a polyethylene tube. A closed tube was inserted through the esophagus to the posterior part of the nasal cavity. The nasopalatine passage was closed with an adhesive agent to prevent drainage of the drug from the nasal cavity to the mouth.
Blood samples were collected from a cannula inserted into the femoral artery. For intravenous administration, the jugular vein was cannulated for administering the dose.
For intravenous administration, the same dose of the drug was injected through the jugular vein.
Blood samples were collected at 0, 5, 10, 20, 30, 40, 60, 90, 120, 150, and 180 minutes. After immediate centrifugation (3000×g for 3 min), the plasma was separated. The animal was sacrificed after the last sample was obtained, and the samples were then analyzed by HPLC, using the method of Hsyu et al. (Pharm. Res. 11:156-159, 1994). Briefly, plasma concentrations of testosterone free base were determined via a HPLC protocol which included solid-phase extraction, separation on a reverse-phase cyano column, and UV detection at 305 nm.

Structure (SMILES): C[C@]12CC[C@H]3[C@@H](CCC4=CC(=O)CC[C@@]43C)[C@@H]1CC[C@@H]2O [TS, 17β-hydroxyandrost-4-en-3-one]
- AUC (inhaled or intranasal, intranasal, dose 25 mg/kg): 1830 ng·h/mL
- AUC (inhaled or intranasal, intranasal, dose 50 mg/kg): 3490 ng·h/mL
- AUC (intravenous, dose 25 mg/kg): 1770 ng·h/mL
- AUC (intravenous, dose 50 mg/kg): 3780 ng·h/mL
